Patent US9793566B2, “Aqueous electrolytes for redox flow battery systems” (Battelle Memorial Institute, priority 2015, dated 2017)
Values after ≈ are worked out from the molar mass of the structure shown.

Experiments:
[1] = Cyclic voltammetry, redox couple potential; type: physicochemical; conditions: neutral aqueous solution
Method: Cyclic voltammetry was performed at 0.05 V/s with a glassy carbon working electrode.

[2] = Electrolyte stability: repeated cycling overnight, cyclic voltammograms before and after; type: physicochemical; conditions: 300 mM DMTU, 0.45 M HCl, no significant peak changes in the cyclic voltammograms
Source text: Cyclic voltammograms were obtained before and after the overnight test—initial E (V)=0, high E (V)=1, low E (V)=−0.8, initial P/N=P, scan rate (V/s)=0.05, segment=3, sample interval (V)=0.001, quiet time (s)=2, […].

[3] = Cyclic voltammetry comparison of N-methyl thiourea and N,N′-dimethyl thiourea catholytes; type: physicochemical; conditions: 200 mM in 1 M NaCl, scan rate 0.05 V/s
Method: Aqueous catholytes comprising 200 mM MTU and 200 mM DMTU were compared. Each catholyte also included 1 M NaCl. Cyclic voltammetry was performed under the following conditions: initial E (V)=0, high E (V)=1, low E (V)=−0.75, initial P/N=P, scan rate (V/s)=0.05, segment=7, sample interval (V)=0.001, quiet time (s)=2, sensitivity (A/V)=0.001.

physchem = conditions: aqueous buffer

| SMILES | one electron redox couple [1] | stability in acid solutions [2] | kinetics, reversibility and overpotential compared with MTU [3] | solubility (physchem) |
| --- | --- | --- | --- | --- |
| CC1(C)CC(O)CC(C)(C)N1[O] [HTMPO, 4-hydroxy-2,2,6,6-tetramethylpiperidine 1-oxyl] | 0.75 V vs. SHE |  |  |  |
| CNC(=S)NC [DMTU, N,N′-dimethyl thiourea] |  | good stability | better kinetics, with better reversibility and a lower overpotential | ~4000 mM (≈ 417 mg/mL) |
